Reference: PubChem BioAssay (NCI)
Several values for one entry are separate records, joined by “and”; a condition that tells them apart may be missing. Equal entries are not always repeated.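 Five concentrations, 48 hours, 96-well plates. GI50 marks 50% less growth. TGI: total growth inhibition.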

tested on: SW-620 colon; assay: NCI-60 cell line screen, 48 h

SMILES	GI50	TGI
CC1(C)C(=O)/C(=C\c2cccnc2)C[C@]2(C)[C@H]3CC[C@@H]4[C@H]5[C@H](C(=O)/C=C/c6cccnc6)CC[C@]5(C(=O)O)CC[C@@]4(C)[C@]3(C)CC[C@@H]12	2.79 µM	10.3 µM
COc1cc2ncnc(-n3ncc4cc(NC(=O)Nc5ccccc5)ccc43)c2cc1OC	3.07 µM	17.9 µM
COc1ccc(C(=O)c2cc(OC)c(OC)c(OC)c2)cc1/C=C/C(=O)c1ccc(F)cc1	2.53 µM	7.44 µM
OCC1OC(n2cnc3c2NC=NC[C@H]3O)C(Cl)C1O (stereo not given in full)		> 100 µM
COc1ccc(C2=C(Cl)c3cc(OC)c(OC)cc3C2Cl)cc1 (stereo not given)		32.9 µM
COc1ccc(-c2[nH]c3ccc(OC)cc3c2/C=C(\C#N)S(=O)(=O)c2ccccc2)cc1	0.534 µM	> 100 µM
O=c1cc(NCC(O)CN2CCCC2)n(Cc2ccccc2)c(=O)n1Cc1ccccc1 (stereo not given)	41.1 µM	> 100 µM
c1ccc(Sc2ccc(Cc3nc4cc5ccccc5cc4[nH]3)cc2)cc1	8.38 µM	> 67.6 µM
CCc1nc2cc(F)c(/C=C/C(=O)NO)cc2c(=O)n1CCc1ccccc1	0.336 µM	12.1 µM
C/C(=N\Nc1ccc(Cl)cn1)c1ccc2ccccc2n1	3.83 µM	> 100 µM
CC1=C(/C=C/Cl)CC(Cl)C(C)(Cl)C1 (stereo not given)		> 100 µM
C=C1C(=O)O[C@H]2[C@H]1CC/C(COC(=O)NCCCCNC(=O)OC/C1=C/CC[C@@]3(C)O[C@H]3[C@H]3OC(=O)C(=C)[C@@H]3CC1)=C\CC[C@@]1(C)O[C@@H]21	0.586 µM	2.04 µM
COc1ccc(C[N+](C)(C)N)cc1OC	> 100 µM	> 100 µM
NS(=O)(=O)c1ccc(-c2ccc3c(NC(=O)C4CC4)n[nH]c3c2)cc1	> 25 µM	> 25 µM
C=CCCCCC/C=C\[C@@H](O)C#CC#C/C=C/CO	48.2 µM	> 100 µM
Cc1cc(C(=O)Nc2ccc3cc(CN4CCOCC4)ccc3n2)c(C)n1-c1ccccc1	4.18 µM	30.5 µM
CCCCCCCCCCCCCCCC(=O)OCC(C[As](=O)(O)O)OC(=O)CCCCCCCCCCCCCCC (stereo not given)		> 100 µM
COc1ccc(C(=O)c2cc(C)c(OC)c(C)c2)cc1OC(=O)CCl	< 0.01 µM	> 100 µM
NC(=O)c1cc(Cl)ccc1NC(=O)/C=C/c1ccccc1	2.36 µM	> 100 µM
O=C1/C(=C(/c2ccccc2)N2CCOCC2)Cc2ccccc21	1.2 µM	2.65 µM
CC1=CC(=O)C=CC1=O	5.31 µM	20.8 µM
CCCC(CCC)NCC(O)c1cc(-c2ccc(C(F)(F)F)cc2)nc(C(F)(F)F)c1 (stereo not given)	1.57 µM	3.05 µM
Cc1cc(C)c(NC(=O)c2sc3nc4c(cc3c2N)C(=O)CCC4)c(C)c1	2.87 µM	> 100 µM
CN(C)CCNc1ccc(CO)c2oc3ccc(O)cc3c(=O)c12		61.3 µM
Cc1ccc(NC(=O)c2cccc(C(C)(C)C#N)c2)cc1Nc1ccc2ncn(C)c(=O)c2c1	1.01 µM	> 100 µM
Cc1cc2ncnn2cc1Nc1ncc2c(n1)n(C1CCOCC1)c(=O)n2C	18.1 µM	> 100 µM
COc1cc(Cc2nccc3cc(OC)c(OC)cc23)c(C(C)=O)cc1OC		300 µM and > 750 µM

tested on: 786-0 renal; assay: NCI-60 cell line screen, 48 h

SMILES	GI50	TGI
CC1(C)C(=O)/C(=C\c2cccnc2)C[C@]2(C)[C@H]3CC[C@@H]4[C@H]5[C@H](C(=O)/C=C/c6cccnc6)CC[C@]5(C(=O)O)CC[C@@]4(C)[C@]3(C)CC[C@@H]12	2.36 µM	5.41 µM
COc1cc2ncnc(-n3ncc4cc(NC(=O)Nc5ccccc5)ccc43)c2cc1OC	1.3 µM	4.34 µM
COc1ccc(C(=O)c2cc(OC)c(OC)c(OC)c2)cc1/C=C/C(=O)c1ccc(F)cc1	2.15 µM	5.57 µM
OCC1OC(n2cnc3c2NC=NC[C@H]3O)C(Cl)C1O (stereo not given in full)		> 100 µM
COc1ccc(C2=C(Cl)c3cc(OC)c(OC)cc3C2Cl)cc1 (stereo not given)		28.6 µM
COc1ccc(-c2[nH]c3ccc(OC)cc3c2/C=C(\C#N)S(=O)(=O)c2ccccc2)cc1	2.03 µM	> 100 µM
O=c1cc(NCC(O)CN2CCCC2)n(Cc2ccccc2)c(=O)n1Cc1ccccc1 (stereo not given)	32.3 µM	> 100 µM
